In PubChem BioAssay AID1259407 (Chemical Carcinogenesis Research Information System (CCRIS), 2018):
Active and inactive are the calls of the source. The rule behind the calls is not given here.

System: CCRIS mutagenicity, Ames/micronucleus/aberration tests
Test: CCRIS mutagenicity studies
[1] = Test System: AMES SALMONELLA TYPHIMURIUM, Strain/Indicator: TA98, Metabolic Activation: HAMSTER, LIVER, S-9, AROCLOR 1254 (10%), Method: PREINCUBATION
[2] = Test System: AMES SALMONELLA TYPHIMURIUM, Strain/Indicator: TA98, Metabolic Activation: NONE, Method: PREINCUBATION
[3] = Test System: AMES SALMONELLA TYPHIMURIUM, Strain/Indicator: TA98, Metabolic Activation: RAT, LIVER, S-9, AROCLOR 1254 (10%), Method: PREINCUBATION
[4] = Test System: AMES SALMONELLA TYPHIMURIUM, Strain/Indicator: TA100, Metabolic Activation: NONE, Method: PREINCUBATION
[5] = Test System: AMES SALMONELLA TYPHIMURIUM, Strain/Indicator: TA100, Metabolic Activation: RAT, LIVER, S-9, AROCLOR 1254 (10%), Method: PREINCUBATION
[6] = Test System: AMES SALMONELLA TYPHIMURIUM, Strain/Indicator: TA1537, Metabolic Activation: HAMSTER, LIVER, S-9, AROCLOR 1254 (10%), Method: PREINCUBATION
[7] = Test System: AMES SALMONELLA TYPHIMURIUM, Strain/Indicator: TA1537, Metabolic Activation: NONE, Method: PREINCUBATION
[8] = Test System: AMES SALMONELLA TYPHIMURIUM, Strain/Indicator: TA1537, Metabolic Activation: RAT, LIVER, S-9, AROCLOR 1254 (10%), Method: PREINCUBATION
[9] = Test System: AMES SALMONELLA TYPHIMURIUM, Strain/Indicator: TA98, Metabolic Activation: NONE, Method: STANDARD PLATE
[10] = Test System: AMES SALMONELLA TYPHIMURIUM, Strain/Indicator: TA100, Metabolic Activation: NONE, Method: STANDARD PLATE

FC(Cl)(Cl)Cl
mutagenic call [1]: inactive; negative | mutagenic call (Test System: AMES SALMONELLA TYPHIMURIUM, Strain/Indicator: TA98, Metabolic Activation: NONE, Method: GAS EXPOSURE): inactive; negative | mutagenic call [2]: inactive; negative | mutagenic call (Test System: AMES SALMONELLA TYPHIMURIUM, Strain/Indicator: TA98, Metabolic Activation: RAT LIVER S-9, PHENOBARBITAL AND BETA-NAPHTHOFLAVONE (40%), Method: GAS EXPOSURE): inactive; negative | mutagenic call [3]: inactive; negative | mutagenic call (Test System: AMES SALMONELLA TYPHIMURIUM, Strain/Indicator: TA100, Metabolic Activation: HAMSTER, LIVER, S-9, AROCLOR 1254 (10%), Method: PREINCUBATION): inactive; negative | mutagenic call (Test System: AMES SALMONELLA TYPHIMURIUM, Strain/Indicator: TA100, Metabolic Activation: NONE, Method: GAS EXPOSURE): inactive; negative | mutagenic call [4]: inactive; negative | mutagenic call (Test System: AMES SALMONELLA TYPHIMURIUM, Strain/Indicator: TA100, Metabolic Activation: RAT LIVER S-9, PHENOBARBITAL AND BETA-NAPHTHOFLAVONE (40%), Method: GAS EXPOSURE): inactive; negative | mutagenic call [5]: inactive; negative | mutagenic call (Test System: AMES SALMONELLA TYPHIMURIUM, Strain/Indicator: TA1535, Metabolic Activation: HAMSTER, LIVER, S-9, AROCLOR 1254 (10%), Method: PREINCUBATION): inactive; negative | mutagenic call (Test System: AMES SALMONELLA TYPHIMURIUM, Strain/Indicator: TA1535, Metabolic Activation: NONE, Method: GAS EXPOSURE): inactive; negative | mutagenic call (Test System: AMES SALMONELLA TYPHIMURIUM, Strain/Indicator: TA1535, Metabolic Activation: NONE, Method: PREINCUBATION): inactive; negative | mutagenic call (Test System: AMES SALMONELLA TYPHIMURIUM, Strain/Indicator: TA1535, Metabolic Activation: RAT LIVER S-9, PHENOBARBITAL AND BETA-NAPHTHOFLAVONE (40%), Method: GAS EXPOSURE): inactive; negative | mutagenic call (Test System: AMES SALMONELLA TYPHIMURIUM, Strain/Indicator: TA1535, Metabolic Activation: RAT, LIVER, S-9, AROCLOR 1254 (10%), Method: PREINCUBATION): inactive; negative | mutagenic call [6]: inactive; negative | mutagenic call (Test System: AMES SALMONELLA TYPHIMURIUM, Strain/Indicator: TA1537, Metabolic Activation: NONE, Method: GAS EXPOSURE): inactive; negative | mutagenic call [7]: inactive; negative | mutagenic call (Test System: AMES SALMONELLA TYPHIMURIUM, Strain/Indicator: TA1537, Metabolic Activation: RAT LIVER S-9, PHENOBARBITAL AND BETA-NAPHTHOFLAVONE (40%), Method: GAS EXPOSURE): inactive; negative | mutagenic call [8]: inactive; negative | mutagenic call (Test System: E.COLI, Strain/Indicator: WP2UVRA, Metabolic Activation: NONE, Method: GAS EXPOSURE): inactive; negative | mutagenic call (Test System: E.COLI, Strain/Indicator: WP2UVRA, Metabolic Activation: RAT LIVER S-9, PHENOBARBITAL AND BETA-NAPHTHOFLAVONE (40%), Method: GAS EXPOSURE): inactive; negative | mutagenic call (Test System: Mouse lymphoma, Strain/Indicator: L5178Y (tk+/tk-), Metabolic Activation: None, Method: Suspension/plate): inactive; negative | mutagenic call (Test System: Mouse lymphoma, Strain/Indicator: L5178Y (tk+/tk-), Metabolic Activation: Rat, Liver, S-9, Aroclor 1254, Method: Suspension/plate): inactive; inconclusive (previous evaluation negative)

CC(=O)O[C@H]1[C@H](OC23C=C(C)C4(CC4)C(C)(O)C2C(=O)C(C)(C)C3)O[C@H](CO)[C@@H](OC(=O)/C=C\c2ccc(O)cc2)[C@@H]1O (stereo partly specified)
mutagenic call [2]: active; positive | mutagenic call [4]: active; positive

C1CCC(NC2CCCCC2)CC1
mutagenic call (Test System: AMES SALMONELLA TYPHIMURIUM, Strain/Indicator: TA97, Metabolic Activation: HAMSTER, LIVER, S-9, AROCLOR 1254 (10%), Method: PREINCUBATION): inactive; negative | mutagenic call (Test System: AMES SALMONELLA TYPHIMURIUM, Strain/Indicator: TA97, Metabolic Activation: NONE, Method: PREINCUBATION): inactive; negative | mutagenic call (Test System: AMES SALMONELLA TYPHIMURIUM, Strain/Indicator: TA97, Metabolic Activation: RAT, LIVER, S-9, AROCLOR 1254 (10%), Method: PREINCUBATION): inactive; negative | mutagenic call [1]: inactive; negative | mutagenic call [2]: inactive; negative | mutagenic call (Test System: AMES SALMONELLA TYPHIMURIUM, Strain/Indicator: TA98, Metabolic Activation: RAT LIVER S-9, PHENOBARBITAL AND BETA-NAPHTHOFLAVONE, Method: PREINCUBATION): inactive; negative | mutagenic call [3]: inactive; negative | mutagenic call [4]: inactive; negative | mutagenic call (Test System: AMES SALMONELLA TYPHIMURIUM, Strain/Indicator: TA100, Metabolic Activation: RAT LIVER S-9, PHENOBARBITAL AND BETA-NAPHTHOFLAVONE, Method: PREINCUBATION): inactive; negative | mutagenic call [5]: inactive; negative | mutagenic call (Test System: AMES SALMONELLA TYPHIMURIUM, Strain/Indicator: TA1535, Metabolic Activation: RAT LIVER S-9, PHENOBARBITAL AND BETA-NAPHTHOFLAVONE, Method: PREINCUBATION): inactive; negative | mutagenic call [6]: inactive; negative | mutagenic call [7]: inactive; negative | mutagenic call (Test System: AMES SALMONELLA TYPHIMURIUM, Strain/Indicator: TA1537, Metabolic Activation: RAT LIVER S-9, PHENOBARBITAL AND BETA-NAPHTHOFLAVONE, Method: PREINCUBATION): inactive; negative | mutagenic call [8]: inactive; negative | mutagenic call (Test System: E.COLI, Strain/Indicator: WP2UVRA/PKM101, Metabolic Activation: NONE, Method: PREINCUBATION): inactive; negative | mutagenic call (Test System: E.COLI, Strain/Indicator: WP2UVRA/PKM101, Metabolic Activation: RAT LIVER S-9, PHENOBARBITAL AND BETA-NAPHTHOFLAVONE, Method: PREINCUBATION): inactive; negative

CCc1ccc(NC(=O)c2csc([N+](=O)[O-])c2)cc1
mutagenic call [9]: active; positive | mutagenic call [10]: active; positive

CCCCCN1C2c3ccccc3-c3ccccc3C21 (stereo unspecified)
mutagenic call [10]: active; positive

C1CCC2OCCOCCOCCOCCOC3CCCCC3OCCOCCOCCOCCOC2C1 (stereo unspecified)
mutagenic call [9]: inactive; negative | mutagenic call (Test System: AMES SALMONELLA TYPHIMURIUM, Strain/Indicator: TA98, Metabolic Activation: RAT, LIVER, S-9, AROCLOR 1254, Method: STANDARD PLATE): inactive; negative | mutagenic call [10]: inactive; negative | mutagenic call (Test System: AMES SALMONELLA TYPHIMURIUM, Strain/Indicator: TA100, Metabolic Activation: RAT, LIVER, S-9, AROCLOR 1254, Method: STANDARD PLATE): inactive; negative | mutagenic call (Test System: AMES SALMONELLA TYPHIMURIUM, Strain/Indicator: TA1530, Metabolic Activation: NONE, Method: STANDARD PLATE): inactive; negative | mutagenic call (Test System: AMES SALMONELLA TYPHIMURIUM, Strain/Indicator: TA1530, Metabolic Activation: RAT, LIVER, S-9, AROCLOR 1254, Method: STANDARD PLATE): inactive; negative | mutagenic call (Test System: AMES SALMONELLA TYPHIMURIUM, Strain/Indicator: TA1537, Metabolic Activation: NONE, Method: STANDARD PLATE): inactive; negative | mutagenic call (Test System: AMES SALMONELLA TYPHIMURIUM, Strain/Indicator: TA1537, Metabolic Activation: RAT, LIVER, S-9, AROCLOR 1254, Method: STANDARD PLATE): inactive; negative

CCc1ccc(NO)cc1
mutagenic call (Test System: E. COLI, Strain/Indicator: WP2 UVRA, Metabolic Activation: NONE, Method: FLUCTUATION TEST): active; positive

CC(C)([CH2][Sn]([CH2]C(C)(C)c1ccccc1)([CH2]C(C)(C)c1ccccc1)[O][Sn]([CH2]C(C)(C)c1ccccc1)([CH2]C(C)(C)c1ccccc1)[CH2]C(C)(C)c1ccccc1)c1ccccc1
mutagenic call (End Point: In vitro chromosomal aberrations, Test System: Human lymphocytes, Metabolic Activation: None): inactive; negative | mutagenic call (End Point: In vitro chromosomal aberrations, Test System: Human lymphocytes, Metabolic Activation: Rat, Liver, S-9, Aroclor 1254): inactive; negative | mutagenic call (End Point: In vivo micronucleus, Test System: Bone marrow polychromatic erythrocytes, Species: Mouse, Strain/Sex: Crl:CD-1(ICR)BR/Male and female, Route: Oral): inactive; negative | mutagenic call (End Point: UDS, Test System: Rat primary hepatocytes, Metabolic Activation: None, Method: Autoradiography): inactive; negative | mutagenic call (Test System: Chinese hamster ovary cells, Strain/Indicator: CHO cells (HPRT)/6-Thioguanine, Metabolic Activation: None, Method: Standard plate): inactive; negative | mutagenic call (Test System: Chinese hamster ovary cells, Strain/Indicator: CHO cells (HPRT)/6-Thioguanine, Metabolic Activation: Rat, Liver, S-9, Aroclor 1254, Method: Standard plate): inactive; negative
